Experimental data as given in US20180231524A1, “IN VITRO METHODS OF IDENTIFYING MODULATORS OF NEUROMUSCULAR JUNCTION ACTIVITY” (MEMORIAL SLOAN-KETTERING CANCER CENTER, priority 2015, published 2018).

Legend:
[1] = tested on: rodent GSK3β homologs; details: cited from earlier work
[2] = tested on: myofibers in MN co-cultures with adult muscle (hMA); experiment: myasthenia gravis model: calcium imaging; type: cell-based, human; details: MG#1 IgG and complement cultures
Description: To further characterize the myasthenic phenotype we performed calcium imaging experiments. […] Therefore cultures were pretreated with control and MG#1 IgG and human complement for 2 days. Calcium imaging was performed in regions with similar amounts of muscle fibers and dense innervation (FIG. 4K, L). […] In addition, the percentage of reactive fibers was reduced in cultures treated with MG#1 IgG and complement compared to controls (FIG. 4N, CTRL 78% vs. MG 32%, two-tailed unpaired t test, p<0.001, t=4.79). […] Finally we sought to confirm the complement attack on the neuromuscular junction. For this purpose, cultures treated with MG#1 IgG and human complement as well as cultures treated with CTRL IgG and human complement for 24 h were stained with an antibody recognizing the human complement fragment C3c. […] (FIG. 4O, P).
(§1) Myotubes or co-cultures on glass coverslips were incubated with the ratiometric calcium dye Fura-2 and imaged under continuous perfusion in normal Tyrode's solution. Myotubes were stimulated by acetylcholine. Co-cultures were illuminated for optogenetic stimulation for 10 ms at 470 nm (4 mW/mm2) every 5 s.
Serum (containing complement) from 5 healthy donors was pooled and added to the media where indicated (2% v/v). […]

[3] = tested on: co-cultures of MNs with adult-derived myoblasts (hMA); experiment: myasthenia gravis model: light-induced muscle contraction in co-cultures; type: cell-based, human; details: PYR 10 μM on day 3; cultures treated with MG IgG (#1 & 2 combined) and complement; n=8
Description: Next we sought to address whether the functional neuromuscular co-cultures were suitable to model a classic human neuromuscular disease. Myasthenia gravis (MG) (Toyka et al., 1977; Verschuuren et al., 2013) is caused by the emergence of autoantibodies against proteins in the neuromuscular junction (e.g. the acetylcholine receptor, AChR). Binding of the pathogenic antibody to AChR activates the complement cascade, resulting in destruction of the neuromuscular endplate (Sahashi et al., 1980), which ultimately causes progressive muscle weakness in patients. We therefore quantified light-induced muscle contractions in functional co-cultures of MNs with adult-derived myoblasts (hMA) before (FIG. 4A, D) and after the incubation with IgG fractions (200 nM total IgG) from two MG patients with clearly elevated AChR antibody titers (#1 and #2). Sandoglobulin (SG) polyvalent IgG served as control. […] Next, we assessed if the myasthenic phenotype was reversible after washout of MG IgG and complement, mimicking plasmapheresis therapy (Gold et al., 2008). […]
Maturing co-cultures were observed under 10× brightfield illumination while intermittently opening the shutter for fluorescent light (470 nm, 2mW/mm^2, approx. 300 ms pulse). […] For the quantification of movement multiple representative high contrast regions were automatically traced (MetaMorph Software). […]

[4] = tested on: light-responsive skeletal myotubes in neuromuscular co-cultures; experiment: sharp electrode recording of light-induced myofiber action potentials; type: cell-based, human; details: 2 μM; 447 nm optogenetic stimulation 0.2 to 2 Hz
Description: (§2) We next characterized key physiologic parameters in the functional neuromuscular cultures. Matured co-cultures were incubated with the calcium dye Fura2 and mounted into an imaging chamber for continuous perfusion. […] The lower panel of FIG. 3J confirms long-term stability of neuro-muscular excitability in a calcium imaging experiment over 45 minutes. In a separate study, skeletal myotubes (n=5), identified by their cylindrical and striated appearance under phase contrast microscopy and by their ability to undergo light-induced twitching were selected for intracellular recordings (FIG. 3K). Light-responsive myotubes were impaled with sharp electrodes and muscle APs were recorded during 447 nm optogenetic stimulation at frequencies from 0.2 to 2 Hz. Spike fidelity was 100% at 0.2 Hz, 93.3±6.7% at 0.5 Hz, 75±15.0% at 1 Hz and 80±10.0% at 2 Hz. […] To address the stability of neuromuscular connectivity over the course of several days and weeks, contractile regions (n=7) were assessed every 5 days.
On matured EYFP+ MNs whole-cell current clamp recordings were performed at room temperature. Light-evoked APs were elicited using a 447 nm diode laser (OEM Laser) with light pulses of 5 ms at approximately 1 mW/mm2. Myotubes contracting in response to light stimulation were impaled with a sharp electrode for intracellular recordings.

[5] = tested on: myofibers in functional neuromuscular co-cultures; experiment: calcium imaging in neuromuscular co-cultures under optogenetic stimulation; type: cell-based, human; details: 470 nm optogenetic stimulation, Fura2; 6/6 cultures
Description: as §2, §1

[6] = tested on: co-cultures of ChR2-expressing hESC-derived spinal motorneurons with human adult (hMA) and fetal (hMF) myofibers; experiment: light-induced muscle twitches in neuromuscular co-cultures; type: cell-based; details: 2 μM, optogenetic stimulation 470 nm, all tested cultures
Description: To establish the neuromuscular co-culture, we used the purified ChR2-expressing spinal motorneurons (day 20-25) and plated them onto pre-differentiated skeletal myofibers (day 5-10). After plating, hESC-derived spinal MN cell bodies mostly remained within the neuronal clusters but extended axons across the adult and fetal muscle (up to 2 mm within the first week, FIG. 3A, E). Co-cultures were tested for the establishment of neuromuscular connectivity in weekly intervals. For this purpose the cultures were observed under bright field illumination and intermittently stimulated with blue light pulses. Six to eight weeks after initiation of the co-culture, the elongated cylindrical myoblast-derived muscle fibers remained morphologically intact and started to contract in response optogenetic stimulation (470 nm, 0.2 Hz, 300 ms pulse width). FIGS. 3B, F show mature co-cultures with both muscle types. FIG. 3C, G show the quantification of muscle twitches of individual fibers from such cultures. The lower panels show long term experiments over 8.5 min (FIG. 3C at 0.2 Hz, FIG. 3G at 0.1 Hz). […]
Maturing co-cultures were observed under 10× brightfield illumination while intermittently opening the shutter for fluorescent light (470 nm, 2mW/mm^2, approx. 300 ms pulse). […] For the quantification of movement multiple representative high contrast regions were automatically traced (MetaMorph Software).

Cc1c[nH]c(-c2cnc(NCCNc3ccc(C#N)cn3)nc2-c2ccc(Cl)cc2Cl)n1 [CHIR99021, 6-(2-(4-(2,4-dichlorophenyl)-5-(4-methyl-1H-imidazol-2-yl)pyrimidin-2-ylamino)ethylamino)nicotinonitrile]
IC50 values against rodent GSK3β homologs [1]: nanomolar

CN(C)C(=O)Oc1ccc[n+](C)c1 [pyridostigmine]
percentage of reactive fibers after PYR in MG cultures [2]: tendency towards a higher percentage of reactive fibers, which did not reach significance | light-induced calcium spike after PYR in MG cultures ([2]; n=8): small but significant increase | change of movement after pyridostigmine in MG cultures [3]: +22%

CC(=O)O[C@H]1C[C@@H]2CC[C@@H]3[C@H](CC[C@@]4(C)[C@H]3C[C@H]([N+]3(C)CCCCC3)[C@@H]4OC(C)=O)[C@@]2(C)C[C@@H]1N1CCCCC1 [vecuronium]
light-induced APs in myofibers [4]: completely blocked light-induced APs in myofibers in a reversible manner | light-evoked calcium spikes in myofibers [5]: could be blocked | light induced muscle twitches [6]: completely blocked | light induced muscle twitches ([6]; listed as Vecuronium): blocks light-evoked contractility
